Assay results taken from US11597721B2, “Heterocyclic compounds comprising pyridine useful as modulators of IL-12, IL-23 and/or IFNα responses” (BRISTOL-MYERS SQUIBB COMPANY, priority 2018, dated 2023).
pIC50: −log10 of the molar value.

Test system: IFNα-Induced STAT Phosphorylation
Assay: IFNα-Induced STAT Phosphorylation in Human Whole Blood
Assay type: cell-based
Conditions: Homo sapiens, 1 h compound incubation, 1000 U/mL recombinant human IFNα A/D for 15 min, pSTAT5 in CD3 positive population, read-out: LE Human WB IFNα-Induced Stat Phosph. (IC50)
Text: IFNα-Induced STAT Phosphorylation in Human Whole Blood
The amount of pSTAT5 expression was quantitated by median fluorescence intensity after gating on the CD3 positive population.

Compound: [2H]C([2H])([2H])NC(=O)c1nnc(NC(=O)C2CC2)cc1Nc1nccc(C#N)c1OC [Example 51, 4-[(4-cyano-3-methoxypyridin-2-yl)amino]-6-cyclopropaneamido-N—(^2H3)methylpyridazine-3-carboxamide]
- pIC50: < 5.00

Compound: [2H]C([2H])([2H])NC(=O)c1nnc(NC(=O)OC)cc1Nc1nccc(-c2noc(CN(C)S(C)(=O)=O)n2)c1OC [Example 52, methyl N-{5-[(3-methoxy-4-{5-[(N-methylmethanesulfonamido)methyl]-1,2,4-oxadiazol-3-yl}pyridin-2-yl)amino]-6-[(^2H3)methylcarbamoyl]pyridazin-3-yl}carbamate]
- pIC50: 6.96

Compound: [2H]C([2H])([2H])NC(=O)c1nnc(NC(=O)OC)cc1Nc1nccc(-c2noc(CN3CCOCC3)n2)c1OC [Example 53, methyl N-{5-[(3-methoxy-4-{5-[(morpholin-4-yl)methyl]-1,2,4-oxadiazol-3-yl}pyridin-2-yl)amino]-6-[(^2H3)methylcarbamoyl]pyridazin-3-yl}carbamate]
- pIC50: 6.30

Compound: [2H]C([2H])([2H])NC(=O)c1nnc(NC(=O)C2CC2)cc1Nc1nccc(-c2noc(CN(C)S(C)(=O)=O)n2)c1OC [Example 54, 6-cyclopropaneamido-4-[(3-methoxy-4-{5-[(N-methylmethanesulfonamido)methyl]-1,2,4-oxadiazol-3-yl}pyridin-2-yl)amino]-N—(^2H3)methylpyridazine-3-carboxamide]
- pIC50: 8.00

Compound: [2H]C([2H])([2H])NC(=O)c1nnc(NC(=O)C2CC2)cc1Nc1nccc(-c2noc(CN3CCOCC3)n2)c1OC [Example 55, 6-cyclopropaneamido-4-[(3-methoxy-4-{5-[(morpholin-4-yl)methyl]-1,2,4-oxadiazol-3-yl}pyridin-2-yl)amino]-N—(^2H3)methylpyridazine-3-carboxamide]
- pIC50: 7.52

Compound: [2H]C([2H])([2H])NC(=O)c1nnc(NC(=O)OC)cc1Nc1nccc(-c2noc(C)n2)c1OC [Example 56, methyl N-(5-{[3-methoxy-4-(5-methyl-1,2,4-oxadiazol-3-yl)pyridin-2-yl]amino}-6-[(^2H3)methylcarbamoyl]pyridazin-3-yl)carbamate]
- pIC50: 5.87

Compound: [2H]C([2H])([2H])NC(=O)c1nnc(NC(=O)C2CC2)cc1Nc1nccc(-c2noc([C@H](C)O)n2)c1OC [Example 57, 6-cyclopropaneamido-4-[(4-{5-[(1S)-1-hydroxyethyl]-1,2,4-oxadiazol-3-yl}-3-methoxypyridin-2-yl)amino]-N—(^2H3)methylpyridazine-3-carboxamide]
- pIC50: 7.22

Compound: [2H]C([2H])([2H])NC(=O)c1nnc(NC(=O)C2CC2)cc1Nc1nccc(-c2noc(CN(C)C)n2)c1OC [Example 58, 6-cyclopropaneamido-4-[(4-{5-[(dimethylamino)methyl]-1,2,4-oxadiazol-3-yl}-3-methoxypyridin-2-yl)amino]-N—(^2H3)methylpyridazine-3-carboxamide]
- pIC50: 7.22

Compound: [2H]C([2H])([2H])NC(=O)c1nnc(NC(=O)C2CC2)cc1Nc1nccc(-c2noc(CC#N)n2)c1OC [Example 60, 4-({4-[5-(cyanomethyl)-1,2,4-oxadiazol-3-yl]-3-methoxypyridin-2-yl}amino)-6-cyclopropaneamido-N—(^2H3)methylpyridazine-3-carboxamide]
- pIC50: 6.89

Compound: [2H]C([2H])([2H])NC(=O)c1nnc(Nc2cc(C)ccn2)cc1Nc1nccc(-c2noc(CN(C)S(C)(=O)=O)n2)c1OC [Example 61, 4-[(3-methoxy-4-{5-[(N-methylmethanesulfonamido)methyl]-1,2,4-oxadiazol-3-yl}pyridin-2-yl)amino]-N—(^2H3)methyl-6-[(4-methylpyridin-2-yl)amino]pyridazine-3-carboxamide]
- pIC50: 6.52

Compound: [2H]C([2H])([2H])NC(=O)c1nnc(Nc2cc(C)ccn2)cc1Nc1nccc(-c2noc(COC)n2)c1OC [Example 62, 4-({3-methoxy-4-[5-(methoxymethyl)-1,2,4-oxadiazol-3-yl]pyridin-2-yl}amino)-N—(^2H3)methyl-6-[(4-methylpyridin-2-yl)amino]pyridazine-3-carboxamide]
- pIC50: 5.95
